This is an account of results in patent EP0486045A2, “S(+)-Phenyl-alkanoic acids and alpha-amino acid containing complexes” (MEDICE Chem.-Pharm. Fabrik Pütter GmbH & Co. KG, priority 1990, dated 1992).

One data set can be described thus: clinical. Conditions: human, in vivo, po, 150 mg.
Data set [1] can be described thus: Pharmacokinetic comparison after a single oral dose of 150 mg S-(+)-Ibuprofen, free acid tablet vs D-Lysinat (Tabelle 5). The settings on record: for Ae conj. I / Ae, free 1 / tlag: single oral dose 150 mg S-(+)-Ibuprofen, Mean ± SD.
Another data set deals with primärer Dysmenorrhör. The data set is described as follows: Pharmacodynamics: pain intensity on a visual analogue scale (0 - 10), self-rated. The class given is in vivo, Probandinnen. The source says: In einer monozentrienden Studie wurde die Pharmakodynamik bei primärer Dysmenorrhör an 24 Probandinnen untersucht. Die Mittelwerte aller Probandinnen als Auswertung einer Schmerzintensitätsskala sind in Tabelle 4 sowie Fig. 4 graphisch dargestellt. Die Schmerzintensität wurde anhand der visuellen Analogskala (einer von 0 - 10 offenen Skala) von den Probandinnen im Rahmen einer Selbstbeurteilung angegeben.
Wie aus Fig. 4 zu ersehen, betrug die mittlere Schmerzintensität zum Zeitpunkt Null 4,7, die analgetische Wirksamkeit setzte innerhalb von 5 Minuten ein und verminderte sich innerhalb der ersten 45 Minuten auf einen Wert von im Mittel 1,65. Die maximale analgetische Wirkung wurde nach 2 Stunden mit einem Wert von 0,36 erreicht. Anschließend stieg die Schmerzintensität bis auf einen Wert von 0,83 nach 6 Stunden wieder langsam an. Die Fig. 4 zeigt die Schmerzintensitätskurve der Probandinnen.

The nature of data set [2]: Adverse drug effects, laboratory parameters and medical follow-up in the study. Type of data set: in vivo, Probandinnen. The settings on record: up to 3 x daily 200 mg on 3 days. An excerpt: Unerwünschte Arzneimittelwirkungen traten bei keiner Teilnehmerin an der Studie auf.
For data set [3] the following is noted: human, in vivo, po, 150 mg.
The nature of data set [4]: Pharmacokinetics of S-(+)-Ibuprofen-D-Lysinat capsules (200 mg S-(+)-Ibuprofen, oral) in 24 subjects.

Values joined by “and” are separate entries in the source; they are usually repeats but may differ in a detail not shown here. Equal entries are not always repeated. Where two headings read alike, the source gives them in different places.

One may read the pKa as the negative logarithm of the acid dissociation constant. Low values mean a group that gives up its proton readily, high ones a group that holds its proton tightly. In the data set “physchem”, `N=C(N)NCCC[C@H](N)C(=O)O` [Arginin] returned a pKa of approximately 12.5.
On the same count and under the same terms, then `NCCCC[C@H](N)C(=O)O` [Lysin], with 10.5.
For orientation: Cmax means the highest concentration seen after dosing. In general, AUC refers to concentration integrated over time. A higher AUC goes with high exposure. Turning to `CC(C)Cc1ccc([C@H](C)C(=O)O)cc1` [S-(+)-Ibuprofen, freie Säure, S-(+)-Ibuprofen], in “clinical”, the Cmax was 10900 ng/mL. In data set [1] (human, in vivo, po, 150 mg), this compound returned an AUC of 44500 ng·h/mL and a tmax of 2 h. For the same compound, in data set [1], the “Ae conj. I” value is given as 8,0 ± 2,9; the “Ae, free 1” value is 0,6 ± 0,2 % of dose; the tlag was 0,5 ± 0,1 h.
For `CC(C)Cc1ccc([C@H](C)C(=O)O)cc1.NCCCC[C@@H](N)C(=O)O` [S-(+)-Ibuprofen-D-Lysinat], the “mittlere Schmerzintensität” value in the data set with primärer Dysmenorrhör (Zeitpunkt Null (baseline), scale 0 - 10, mean of 24 subjects) was 4,7; with primärer Dysmenorrhör (nach 2 Stunden (maximal analgesic effect), scale 0 - 10), 0,36; with primärer Dysmenorrhör (nach 6 Stunden, scale 0 - 10), 0,83; with primärer Dysmenorrhör (within the first 45 Minuten, scale 0 - 10), 1,65. Also, in the data set with primärer Dysmenorrhör (onset of analgesia), the “Einsetzen der analgetischen Wirksamkeit” value is recorded as not above 5 Minuten. Also, the “unerwünschte Arzneimittelwirkungen” value in data set [2] (single or repeated intake) is given as “zu keinen unerwünschten Arzneimittelwirkungen geführt hat mit Ausnahme der bei einer Probandin aufgetretenen pseudoallergischen Reaktion”. Besides, the “laborchemische Parameter und ärztliche Nachuntersuchung” value in data set [2] is “ohne pathologischen Befund”. In addition, in data set [3], the Cmax was 23,0 ± 5,2 µg/ml. The “AUC (Trapez)” value in data set [4] (group A (n 6), mean x̄, capsule single dose, 720 min) is 69,55 mg/lx12h. The tmax in data set [4] (mean of all subjects, 200 mg capsule oral) is 33 Minuten and 33,59 Minuten. The AUC in data set [4] (mean of all subjects, trapezoidal rule, 200 mg capsule oral, 720 min) was 56,45 mg/1 x 12 h. In addition, the “Verzögerungszeit (lag-Time) der Resorption” value in data set [4] (mean, 200 mg capsule oral) is reported as 2,33 Minuten. Moreover, the “Ae conj. I” value in data set [1] is 9,3 ± 5,4. Besides, the “Ae, free 1” value in data set [1] was 0,6 ± 0,5 % of dose. In data set [1], the tlag is reported as 0,1 ± 0,02 h.
